Where a name gives a salt, the structure may show the parent alone.
Molecular target: AaDOP2 (Aedes aegypti, UniProt H6D5H2)
Experiment: AaDOP2 antagonist screen of the LOPAC1280 library (HEK-CRELuc-Aadop2 cells, luminescence)
Assay type: cell-based
Details: not given

Sequence of AaDOP2 (H6D5H2 1-476): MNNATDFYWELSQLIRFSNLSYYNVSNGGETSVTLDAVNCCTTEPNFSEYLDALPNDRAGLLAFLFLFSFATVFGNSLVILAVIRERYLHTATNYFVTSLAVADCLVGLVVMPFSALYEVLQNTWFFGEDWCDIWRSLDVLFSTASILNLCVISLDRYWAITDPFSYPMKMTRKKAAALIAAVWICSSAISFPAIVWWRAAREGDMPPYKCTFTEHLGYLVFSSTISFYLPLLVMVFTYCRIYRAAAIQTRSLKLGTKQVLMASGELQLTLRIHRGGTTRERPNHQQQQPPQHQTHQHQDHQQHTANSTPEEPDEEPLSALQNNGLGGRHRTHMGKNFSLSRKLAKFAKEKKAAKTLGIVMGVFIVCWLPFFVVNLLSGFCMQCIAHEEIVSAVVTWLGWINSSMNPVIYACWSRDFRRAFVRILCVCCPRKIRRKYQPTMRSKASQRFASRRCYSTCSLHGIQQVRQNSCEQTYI

| Compound | Compound effect (percent receptor signaling in presence of test compound, relative lux units relative to the SCH23390 control) |
| --- | --- |
| CC[N+](C)(C)c1cccc(O)c1 [Compound 484, Edrophonium chloride] | 118 |
| CCC1(C2=NCCN2)Cc2ccccc2O1 (stereo not shown) [Compound 485, Efaroxan hydrochloride] | 74 |
| Cc1c2ccncc2c(C)c2c1[nH]c1ccccc12 [Compound 486, Ellipticine] | 98 |
| O=c1c2ccccc2[se]n1-c1ccccc1 [Compound 487, Ebselen] | 102 |
| CCN1C(=O)C=CC1=O [Compound 490, N-Ethylmaleimide] | 87 |
| O=C(O)CN(CCOCCOCCN(CC(=O)O)CC(=O)O)CC(=O)O [Compound 492, Ethylene glycol-bis(2-aminoethylether)-N,N,N',N'-tetraacetic acid] | 121 |
| CCC1(C)CC(=O)NC1=O (stereo not shown) [Compound 494, Ethosuximide] | 146 |
| O=C(O)[C@@H]1[C@H](C(=O)O)[C@H]2CC[C@@H]1O2 [Compound 495, Endothall] | 117 |
| Cc1cc(O)c2c(c1)C(=O)c1cc(O)cc(O)c1C2=O [Compound 496, Emodin] | 49 |
| CNC(=O)Oc1ccc2c(c1)[C@]1(C)CCN(C)[C@@H]1N2C [Compound 497, (-)-Physostigmine] | 93 |
| CCCN(CC1CC1)c1nc(C)nc(Nc2c(Cl)cc(Cl)cc2Cl)c1Cl [Compound 498, NBI 27914] | 90 |
| C[C@]12CC[C@@H]3c4ccc(O)cc4CC[C@H]3[C@@H]1CC[C@@H]2O [Compound 499, beta-Estradiol] | 112 |
| C[C@]12CC[C@@H]3c4ccc(O)cc4CC[C@H]3[C@@H]1CCC2=O [Compound 500, Estrone] | 91 |
| COC(=O)c1cc2c(cn1)[nH]c1ccccc12 [Compound 501, Methyl beta-carboline-3-carboxylate] | 118 |
| CNC(=O)c1cc2c(cn1)[nH]c1ccccc12 [Compound 502, N-Methyl-beta-carboline-3-carboxamide] | 80 |
| CCc1c(C(=O)OC)ncc2[nH]c3cc(OC)c(OC)cc3c12 [Compound 503, Methyl 6,7-dimethoxy-4-ethyl-beta-carboline-3-carboxylate] | 79 |
| CC(C)[C@@]1(NC(=O)[C@@H]2C=C3c4cccc5[nH]cc(c45)C[C@H]3N(C)C2)O[C@@]2(O)[C@@H]3CCCN3C(=O)[C@H](Cc3ccccc3)N2C1=O [Compound 508, Ergocristine] | 100 |
| NC(=O)OCC(COC(N)=O)c1ccccc1 [Compound 509, Felbamate] | 113 |
| CC(Cc1ccc(O)cc1)NCC(O)c1cc(O)cc(O)c1 (stereo not shown) [Compound 511, Fenoterol hydrobromide] | 136 |
| CNCC[C@H](Oc1ccc(C(F)(F)F)cc1)c1ccccc1.Cl [Compound 512, S-(+)-Fluoxetine hydrochloride] | 77 |
| CNCC[C@@H](Oc1ccc(C(F)(F)F)cc1)c1ccccc1.Cl [Compound 513, R-(-)-Fluoxetine hydrochloride] | 79 |
| COCCCC/C(=N\OCCN)c1ccc(C(F)(F)F)cc1 [Compound 514, Fluvoxamine maleate] | 114 |
| COc1ccc2c(c1)c(CC(=O)O)c(C)n2Cc1ccc(F)cc1 [Compound 515, 1-(4-Fluorobenzyl)-5-methoxy-2-methylindole-3-acetic acid] | 103 |
| COc1cccc2c1[C@@H]1CN(CCCCn3c(=O)[nH]c4c(sc5ncc(-c6ccccc6)nc54)c3=O)C[C@@H]1CO2 [Compound 517, Fiduxosin hydrochloride] | 69 |
| NS(=O)(=O)c1cc(C(=O)O)c(NCc2ccco2)cc1Cl [Compound 518, Furosemide] | 129 |
| CC(C)OC(=O)C(C)(C)Oc1ccc(C(=O)c2ccc(Cl)cc2)cc1 [Compound 521, Fenofibrate] | 95 |
| O=C1NCC2(CCN(CCc3ccccc3)CC2)O1 [Compound 522, Fenspiride hydrochloride] | 98 |
| CCOC(=O)c1ncn2c1CN(C)C(=O)c1cc(F)ccc1-2 [Compound 523, Flumazenil] | 124 |

Same assay, conditions: 10 µM compound, 300 nM dopamine, 2 hr; hit = compound effect <20

| Compound | Compound effect (percent receptor signaling in presence of test compound, relative lux units relative to the SCH23390 control) |
| --- | --- |
| CCc1cc(Cl)c(OC)c(C(=O)NC[C@@H]2CCCN2CC)c1O.Cl [Compound 505, S-(-)-Eticlopride hydrochloride] | 85% |
| OC[C@H]1O[C@@H](n2cnc3c(N[C@H]4CC5CCC4C5)ncnc32)[C@H](O)[C@@H]1O (stereo partly drawn) [Compound 506, (S)-ENBA] | 112% |
| CCCCCCC(C(C)O)n1cnc2c(N)ncnc21.Cl (stereo not drawn) [Compound 507, erythro-9-(2-Hydroxy-3-nonyl)adenine hydrochloride] | 128% |
| CC(=O)O[C@H]1C[C@@]2(C)[C@@H](C[C@@H](O)[C@H]3[C@@]4(C)CC[C@@H](O)[C@@H](C)[C@@H]4CC[C@@]32C)/C1=C(\CCC=C(C)C)C(=O)[O-].[Na+] [Compound 510, Fusidic acid sodium] | 131% |
| O=C([O-])c1cc2cc(Cc3cccnc3)ccc2o1.[Na+] [Compound 516, Furegrelate sodium] | 146% |
| N[C@@H](Cc1ccc(F)cc1)C(=O)O [Compound 519, p-Fluoro-L-phenylalanine] | 97% |

From article PMC3265452 (PLoS Neglected Tropical Diseases, 2012)
